Experimental findings from patent US20200405885A1, “MAGNETIC RESONANCE IMAGING (MRI) CONTRAST AGENTS AND USE THEREOF” (TECHNION RESEARCH & DEVELOPMENT FOUNDATION LTD., priority 2017, published 2020) are described below.

The nature of series [1]: Solubilization of MFS-agent in water. In kind it is physicochemical. The note with it: 0.1 mM in water, no DMSO or other solvents. As to the method:
(§1) To examine the multi-functionality of the complete MFS-agent 2 (FIG. 2B), compound 2 was solubilized in water (0.1 mM) and imaged via three distinct imaging modalities (FIG. 4A-C). […] This is a highly desirable trait, for a molecule that will be delivered through the blood stream. […] Red fluorescence emission was determined by using spectral analysis of a confocal microscope (FIG. 4B).

The nature of series [2]: Emission spectrum by confocal microscope. In kind it is physicochemical. The note with it: 561 nm laser excitation. As to the method:
(§2) FIGS. 4A-C present the characterization of the MFS-agent 2 using different imaging modalities; (4A) Phantom T1 MRI-measurement (Bruker, ASPECT 1 T MRI scanner, USA) of control (0 mM) and MFS-agent (0.1 mM dissolved in water), (4B) Emission spectra of the MFS measured by confocal microscope (LSM-880, Zeiss, Germany) with 561 nm laser excitation (peak emission (nm): 617), (4C) and Phantom measurement in X-ray micro-Computed Tomography scanner (Bruker, Skyscan micro-CT, USA) of control (0 mM) and MFS-agent (0.1 mM dissolved in water).
as §1

Series [3] can be described thus: Phantom T1 MRI measurement (1 T scanner). The note with it: 0.1 mM dissolved in water vs control (0 mM), 1 T MRI scanner. On the procedure:
as §2, §1

Series [4] can be described thus: Phantom measurement in X-ray micro-CT scanner. The note with it: 0.1 mM dissolved in water vs control (0 mM). As to the method: as §2, §1

Turning to `Nc1nc(OCc2ccc(CNC(=O)NCCOCCN(CCOCCn3cc(CNC(=O)CN4CCN(CC(=O)O)CCN(CC(=O)O)CCN(CC(=O)O)CC4)nn3)S(=O)(=O)c3ccc(C4=c5cc6c7c(c5Oc5c4cc4c8c5CCCN8CCC4)CCC[N+]=7CCC6)c(S(=O)(=O)O)c3)cc2)c2nc[nH]c2n1` [compound 2], the solubility in water result in series [1] is “dissolved easily in water”. The compound further registered a peak emission in series [2] of 617 nm. For the same compound, the “T1 MRI contrast” value in series [3] is reported as “very bright contrast”. Moreover, in series [4], the “CT signal (X-ray attenuation)” value is given as “very strong CT signal”.
